Measured values: EP0003212A1, “2.4-Diamino-5-benzylpyrimidines, pharmaceutical compositions containing them and their preparation” (F. HOFFMANN-LA ROCHE & CO. Aktiengesellschaft, priority 1977, dated 1979)
Like-named read-outs stand apart in the source and are kept apart here.

Key:
E. coli 1346 = experiment: In vitro antibacterial activity (MIC); format: cell-based; details: strain E. coli 1346, unit not given
S. aureus Schoch. = experiment: In vitro antibacterial activity (MIC); format: cell-based; details: strain S. aureus Schoch., unit not given
[1] = target: bakterielle Dihydrofolsäurereduktase (DHFR) (Escherichia coli, UniProt P0ABQ4); experiment: 50% inhibition of bacterial dihydrofolate reductase; format: biochemical, E. coli
Text: Die Verbindungen der Formel I und ihre Salze sind antibakteriell wirksam. Sie hemmen die bakterielle Dihydrofolsäurereduktase (DHFR) und potenzieren darüberhinaus die Wirkung von Sulfonamiden und anderen Dihydrofolsäuresynthetasehemmern. Beispiele von Sulfonamiden, die durch die erfindungsgemässen Verbindungen potenziert werden, sind solche der Pyrimidin-, Isoxazol-, Oxazol- und Pyrazinreihe wie Sulfadiazin, Sulfadimethoxin, Sulfadoxin, Sulfamerazin, Sulfameter, Sulfamethazin, 6-Methoxy-4-sulfanilamidopyrimidin, Sulfamethoxazol, Sulfisoxazol, 3-Sulfanilamido-4,5-dimethyl-isoxazol, Sulfamoxol und Sulfalen. Quantitativ zeichnen sich die erfindungsgemässen Verbindungen gegenüber bekannten Verbindungen durch niedrigere 50%ige Hemmkonzentrationen der bakteriellen DHFR, beispielsweise bei E. coli, und durch wesentlich höhere Q-Werte (50%ige Hemmung der DHFR bei Ratte/50%ige Hemmung der DHFR bei E. coli), die ein Mass für die Selektivität der Hemmung der bakteriellen DHFR darstellen, sowie durch geringe Toxizität aus.

[2] = DHFR of E. coli, read-out: 50% Hemmung der DHFR (M x 10^-8) E. coli

| SMILES | Aktivität in vitro (MIC) E. coli 1346 (E. coli 1346) | Aktivität in vitro (MIC) S. aureus Schoch. (S. aureus Schoch.) | IC50 [1] | IC50 [1, 2] |
| --- | --- | --- | --- | --- |
| CSc1cc(C)c(Cc2cnc(N)nc2N)cc1SC [R^1=CH3, R^2=H, R^3=SCH3, R^4=SCH3, 2,4-Diamino-5-[2-methyl-4,5-bis-(methylthio)-benzyl]-pyrimidin] | 0,7 | 0,7 | 15 nM |  |
| CSc1ccc(Cc2cnc(N)nc2N)cc1SC [R^1=H, R^2=H, R^3=SCH3, R^4=SCH3] |  | 0,7 |  | 16 nM |
| COCCSc1c(OC)cc(Cc2cnc(N)nc2N)cc1OC [R^1=H, R^2=OCH3, R^3=SC2H4OCH3, R^4=OCH3] |  | 1,0 |  | 97 nM |
| CCSc1c(OC)cc(Cc2cnc(N)nc2N)cc1OC [R^1=H, R^2=OCH3, R^3=SC2H5, R^4=OCH3, 2,4-Diamino-5-[4-(äthylthio)-3,5-dimethoxybenzyl]-pyrimidin] | 0,04 | 0,4 |  | 1.8 nM |
| COc1cc(Cc2cnc(N)nc2N)cc(OC)c1SC [R^1=H, R^2=OCH3, R^3=SCH3, R^4=OCH3, 2,4-Diamino-5-[3,5-dimethoxy-4-(methylthio)-benzyl]-pyrimidin] | 0,02 | 0,4 | 3.5 nM |  |
| COc1c(Br)cc(Cc2cnc(N)nc2N)cc1SC [R^1=H, R^2=SCH3, R^3=OCH3, R^4=Br] | 0,2 | 1,0 |  | 11 nM |
| COc1cc(Cc2cnc(N)nc2N)cc(SC)c1OC [R^1=H, R^2=SCH3, R^3=OCH3, R^4=OCH3] | 0,1 | 0,78 |  | 5 nM |
| COc1c(SC)cc(Cc2cnc(N)nc2N)cc1SC [R^1=H, R^2=SCH3, R^3=OCH3, R^4=SCH3] | 0,7 | 0,2 |  | 7.2 nM |
| CSc1cc(Cc2cnc(N)nc2N)cc(SC)c1SC [R^1=H, R^2=SCH3, R^3=SCH3, R^4=SCH3] | 0,2 | 0,2 |  | 4.5 nM |
| CSc1cc(Cc2cnc(N)nc2N)cc(SC)c1-n1cccc1 [R^1=H, R^2=SCH3, R^3=[drawing], R^4=SCH3] | > 1 | 4,0 |  | 5.2 nM |
